Test results from ChEMBL document CHEMBL1146989 (Bioorg Med Chem Lett, 2006).

Target: PI3-kinase p110-alpha/p85-alpha (Homo sapiens, UniProt P42336)
Assay: Inhibition of PI3 kinase p110alpha/p85-alpha complex
Assay type: protein-complex assay

Chain of PI3-kinase p110-alpha/p85-alpha (P27986 whole entry): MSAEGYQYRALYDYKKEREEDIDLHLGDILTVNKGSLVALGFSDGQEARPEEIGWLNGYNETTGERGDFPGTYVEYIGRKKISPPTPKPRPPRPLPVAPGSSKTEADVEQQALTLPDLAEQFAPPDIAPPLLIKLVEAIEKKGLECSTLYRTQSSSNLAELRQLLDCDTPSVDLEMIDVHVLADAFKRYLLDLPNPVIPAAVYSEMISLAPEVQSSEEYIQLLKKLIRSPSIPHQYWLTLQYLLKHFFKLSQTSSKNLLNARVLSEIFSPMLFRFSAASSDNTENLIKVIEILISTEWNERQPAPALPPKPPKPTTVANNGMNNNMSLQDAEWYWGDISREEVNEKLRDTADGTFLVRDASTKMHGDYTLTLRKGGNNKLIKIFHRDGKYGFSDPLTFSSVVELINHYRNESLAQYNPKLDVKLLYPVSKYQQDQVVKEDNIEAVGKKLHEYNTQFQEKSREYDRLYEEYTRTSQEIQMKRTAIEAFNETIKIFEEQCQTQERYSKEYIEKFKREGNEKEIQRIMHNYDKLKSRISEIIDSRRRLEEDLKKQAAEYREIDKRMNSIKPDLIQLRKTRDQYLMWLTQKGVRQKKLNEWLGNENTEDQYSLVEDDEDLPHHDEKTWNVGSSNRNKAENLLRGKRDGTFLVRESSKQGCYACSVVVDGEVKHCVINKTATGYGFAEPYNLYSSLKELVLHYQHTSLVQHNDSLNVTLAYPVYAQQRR
Chain of PI3-kinase p110-alpha/p85-alpha (P42336 whole entry): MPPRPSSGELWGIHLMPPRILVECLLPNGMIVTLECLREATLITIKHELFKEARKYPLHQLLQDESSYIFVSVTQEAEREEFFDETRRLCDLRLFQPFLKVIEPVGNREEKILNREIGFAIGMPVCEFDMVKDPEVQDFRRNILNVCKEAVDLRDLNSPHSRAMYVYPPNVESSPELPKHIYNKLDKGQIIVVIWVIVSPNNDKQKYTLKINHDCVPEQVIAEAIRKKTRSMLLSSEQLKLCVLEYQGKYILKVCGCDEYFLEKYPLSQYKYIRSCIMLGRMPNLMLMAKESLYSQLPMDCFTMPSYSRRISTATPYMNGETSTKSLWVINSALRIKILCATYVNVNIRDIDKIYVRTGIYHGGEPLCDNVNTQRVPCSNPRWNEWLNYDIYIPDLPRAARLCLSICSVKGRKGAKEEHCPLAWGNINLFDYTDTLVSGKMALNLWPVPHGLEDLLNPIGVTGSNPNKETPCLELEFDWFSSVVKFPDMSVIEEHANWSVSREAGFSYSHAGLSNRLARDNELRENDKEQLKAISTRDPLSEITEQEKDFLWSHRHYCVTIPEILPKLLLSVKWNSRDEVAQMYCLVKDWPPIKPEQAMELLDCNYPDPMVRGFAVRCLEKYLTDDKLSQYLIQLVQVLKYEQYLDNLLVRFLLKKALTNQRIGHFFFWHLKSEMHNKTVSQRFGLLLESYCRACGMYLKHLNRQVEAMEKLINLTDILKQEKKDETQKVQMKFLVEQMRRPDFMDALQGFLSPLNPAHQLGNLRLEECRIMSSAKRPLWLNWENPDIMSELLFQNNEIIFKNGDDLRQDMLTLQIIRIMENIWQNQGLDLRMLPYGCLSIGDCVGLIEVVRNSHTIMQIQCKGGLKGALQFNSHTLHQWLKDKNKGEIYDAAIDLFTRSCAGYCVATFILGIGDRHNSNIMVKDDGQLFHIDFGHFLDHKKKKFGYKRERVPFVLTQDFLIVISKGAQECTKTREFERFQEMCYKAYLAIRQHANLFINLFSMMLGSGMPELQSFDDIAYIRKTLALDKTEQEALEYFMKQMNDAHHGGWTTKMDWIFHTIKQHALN

Row | Structure (SMILES) | IC50 [nM]
1 | CN(CC(=O)O[C@@H]1CC(=O)c2coc3c2[C@@]1(C)c1ccc2c(c1C3=O)CCC2=O)c1ccc([N+](=O)[O-])c2nonc12 | 9.6
2 | COC[C@H]1OC(=O)c2coc3c2[C@@]1(C)C1=C(C3=O)C2CC[C@H](OC(=O)Cc3cc(=O)oc4cc(N(C)C)ccc34)[C@@]2(C)C[C@H]1OC(C)=O (stereo partly specified) | 695
3 | COC[C@H]1OC(=O)c2coc3c2[C@@]1(C)C1=C(C3=O)C2CC[C@H](OC(=O)CN(C)c3ccc([N+](=O)[O-])c4nonc34)[C@@]2(C)C[C@H]1OC(C)=O (stereo partly specified) | 225
4 | COC[C@H]1OC(=O)c2coc3c2[C@@]1(C)C1=C(C3=O)C2CCC(=O)[C@@]2(C)C[C@H]1OC(=O)CN(C)c1ccc([N+](=O)[O-])c2nonc12 (stereo partly specified) | 0.7
5 | CN(C)c1ccc2c(CC(=O)O[C@@H]3CC(=O)c4coc5c4[C@@]3(C)c3ccc4c(c3C5=O)CCC4=O)cc(=O)oc2c1 | 1.9
6 | COC[C@H]1OC(=O)c2coc3c2[C@@]1(C)C1=C(C3=O)C2CCC(=O)[C@@]2(C)C[C@H]1OC(=O)Cc1cc(=O)oc2cc(N(C)C)ccc12 (stereo partly specified) | 10.1
